We go through 1 compound from patent publication US6495133B1, “Gliocladium roseum strains useful for the control of fungal pathogens in plants” (priority 1998, dated 2002).

For this assay, the system named is Pythium aphanidermatum. In words: Comparison and compatibility of ACM941 with metalaxyl fungicide, pythium root rot of field pea, field experiments. It counts as in vivo. The settings on record: for Emergence / Yield: Saturn field pea.
[1] abbreviates: average of the two testing years.

Consider `COCC(=O)N(c1c(C)cccc1C)C(C)C(=O)OC` (stereo not drawn) [Metalaxyl, metalaxyl], for which, where the note is “1997”, the Emergence is 44.3 ab % and the Yield stood at 990 bc kg/ha. Moreover, for the setting “1998”, the Emergence is given as 78.2 a % and the Yield is listed as 5757 a kg/ha. Also, under setting [1], the “increased emergence by” value is 17.3% and the “increased yield by” value came to 19.5%.
